One may read the IC50 as the concentration at which inhibition is half-maximal. The AUC(0-inf) is the area under the concentration-time curve extrapolated to infinity. Higher therefore signals high exposure. The term MRT inf denotes the average time that molecules of a dose stay in the body. The term half-life denotes the time needed for the level to fall by half in the phase considered. Low values mean rapid decline, high ones slow decline. Broadly, the Tmax is the time at which the peak concentration occurs. One may read the Cmax as the peak of the concentration-time curve.

Data set [1] concerns Hepatitis B virus. As to the kind of experiment: Antiviral activity against Hepatitis B virus assessed as inhibition of HbeAg level. The data set is classed as functional, organism-based.
Data set [2] concerns Hepatitis B virus. As to the kind of experiment: Antiviral activity against Hepatitis B virus assessed as inhibition of HbsAg level. Format: functional, organism-based.
Data set [3] concerns Hepatitis B virus. As to the kind of experiment: Antiviral activity against Hepatitis B virus assessed as inhibition of HBV DNA production. The data set is classed as functional, organism-based.
Data set [4] in a line: Cytotoxicity against mouse HT-22 cells assessed as cell viability at 30 uM relative to control. To be noted: read-out: Activity. The data set is classed as toxicity, cell-based.
Data set [5] relates to HT-22. As to the kind of experiment: Cytotoxicity against mouse HT-22 cells assessed as reduction in cell viability at 10 uM. The data set is classed as toxicity, cell-based. To be noted: ht-22, 10 µM.
The subject of data set [6] is HT-22. As to the kind of experiment: Cytotoxicity against mouse HT-22 cells assessed as reduction in cell viability at 30 uM. Format: toxicity, cell-based. The following applies: ht-22, 30 µM.
A short description of data set [7]: Neurotoxicity in mouse HT-22 cells assessed as reduction in neurite length at 30 uM incubated for 48 hrs. The data set is classed as toxicity, cell-based. The following applies: ht-22, 48 h.
Data set [8] can be described thus: AUC (0 to infinity) in mouse at 10 mg/kg, po administered as single dose. The data set is classed as ADME, organism-based. To be noted: in vivo.
The nature of data set [9]: Neurotoxicity in mouse HT-22 cells assessed as reduction in neurite length at 10 uM. Format: toxicity, cell-based. To be noted: ht-22, 10 µM.
Data set [10] in a line: MRT (0 to infinity) in mouse at 10 mg/kg, po administered as single dose. The data set is classed as ADME, organism-based. The following applies: in vivo.
Data set [11] in a line: Half-life in mouse at 10 mg/kg, po administered as single dose. The data set is classed as ADME, organism-based. To be noted: in vivo.
The nature of data set [12]: Tmax in mouse at 10 mg/kg, po administered as single dose. Format: ADME, organism-based. The following applies: in vivo.
Data set [13] in a line: Neurotoxicity in mouse DRG neuron assessed as reduction in neurite length at 10 uM incubated for 24 hrs. The data set is classed as toxicity, cell-based.
The nature of data set [14]: Cmax in mouse at 10 mg/kg, po administered as single dose. The following applies: in vivo. The data set is classed as ADME, organism-based.
A short description of data set [15]: Neurotoxicity in mouse HT-22 cells assessed as reduction in neurite length at 10 to 30 uM incubated for 24 to 48 hrs. Format: toxicity, cell-based. To be noted: ht-22, 30 µM, dose lower 10 µM, time lower 24 hrs, dose upper 30 µM, time upper 48 hrs.
A short description of data set [16]: Neurotoxicity in PAPD7-knockout mouse HT-22 cells assessed as reduction in neurite length. The data set is classed as toxicity, cell-based.
A short description of data set [17]: Neurotoxicity in PAPD5-knockout mouse HT-22 cells assessed as reduction in neurite length. The data set is classed as toxicity, cell-based.

Take `COc1cc2c(cc1N1CCC3(C1)OCCO3)C[C@H](C(C)C)n1cc(C(=O)O)c(=O)cc1-2`: the values for the IC50 with Hepatitis B virus [1] and with Hepatitis B virus [2] were 668 nM and 126 nM, respectively.
Regarding `COc1cc2c(cc1OC[C@@H]1CCCO1)C[C@@H](C(C)C)n1cc(C(=O)O)c(=O)cc1-2`, the IC50 in the data set with Hepatitis B virus [1], in the data set with Hepatitis B virus [2] and in the data set on Hepatitis B virus [3] was 0.6 nM in each case.
`COc1cc2c(cc1OCCCN1CCC3(CCCO3)CC1)CC(C(C)C)n1cc(C(=O)O)c(=O)cc1-2` (stereo not drawn): the IC50 with Hepatitis B virus [1] was greater than 1000 nM; with Hepatitis B virus [2] it was 62 nM; in the data set on Hepatitis B virus [3], 217 nM.
Consider `COc1cc2c(cc1OC1CCC3(CCOCC3)CC1)CC(C(C)C)n1cc(C(=O)O)c(=O)cc1-2` (stereo not drawn), for which the IC50 in the data set with Hepatitis B virus [1] is 47 nM; in the data set with Hepatitis B virus [2] it was 151 nM; with Hepatitis B virus [3], 38 nM.
As for `COc1cc2c(cc1N1CC3COCC3C1)CC(C(C)C)n1cc(C(=O)O)c(=O)cc1-2` (stereo not drawn), the IC50 in the data set on Hepatitis B virus [1] turned out to be 236 nM; in the data set on Hepatitis B virus [2], 14 nM; in the data set with Hepatitis B virus [3] it was 64 nM.
On the same counts, the results for `COc1cc2c(cc1N1CCC3(CCCO3)CC1)CC(C(C)C)n1cc(C(=O)O)c(=O)cc1-2` (stereo not drawn) are 295 nM, 27 nM and 40 nM.
On the same counts, the results for `COc1cc2c(cc1N1CCC(O)CC1)CC(C(C)C)n1cc(C(=O)O)c(=O)cc1-2` (stereo not drawn) are greater than 1000 nM, 41 nM and 300 nM.
For `COc1cc2c(cc1OCCCN1CCC3(CCOC3)C1)CC(C(C)C)n1cc(C(=O)O)c(=O)cc1-2` (stereo not drawn), the IC50 is greater than 1000 nM in the data set on Hepatitis B virus [1], 193 nM with Hepatitis B virus [2] and 31 nM in the data set on Hepatitis B virus [3].
For the molecule `COc1cc2c(cc1N1CCC(C(=O)O)CC1)CC(C(C)C)n1cc(C(=O)O)c(=O)cc1-2` (stereo not drawn), the IC50 in the data set on Hepatitis B virus [1] is greater than 1000 nM; with Hepatitis B virus [2] it was 1240 nM; with Hepatitis B virus [3], 405 nM.
Turning to `COc1cc2c(cc1OCCCN1CCC3(C1)OCCO3)C[C@H](C(C)C)n1cc(C(=O)O)c(=O)cc1-2`, the values for the IC50 in the data set with Hepatitis B virus [1] and with Hepatitis B virus [2] were 856 nM and 189 nM, respectively.
Regarding `COc1cc2c(cc1N1CCC3(CCOCC3)C1)CC(C(C)C)n1cc(C(=O)O)c(=O)cc1-2` (stereo not drawn), the IC50 in the data set on Hepatitis B virus [1] was 5 nM; in the data set with Hepatitis B virus [2] it was 0.6 nM; in the data set on Hepatitis B virus [3] it was less than 1.6 nM.
In the case of `COc1cc2c(cc1N1CCOCC1)CC(C(C)C)n1cc(C(=O)O)c(=O)cc1-2` (stereo not drawn), the IC50 in the data set on Hepatitis B virus [1] was 99 nM; with Hepatitis B virus [2], 8 nM; in the data set with Hepatitis B virus [3] it was 8 nM.
Turning to `COc1cc2c(cc1N1CCC3(CCOCC3)C1)C[C@H](C(C)C)n1cc(C(=O)O)c(=O)cc1-2`, the IC50 with Hepatitis B virus [1] is 875 nM; in the data set with Hepatitis B virus [2] it was 100 nM.
As for `COc1cc2c(cc1N1CCC(C(F)(F)F)CC1)CC(C(C)C)n1cc(C(=O)O)c(=O)cc1-2` (stereo not drawn), the half-maximal inhibitory concentration (IC50) is 204 nM in the data set with Hepatitis B virus [1], 30 nM in the data set with Hepatitis B virus [2] and 80 nM with Hepatitis B virus [3].
Regarding `COc1cc2c(cc1N1CCOCC1)C[C@H](C(C)C)n1cc(C(=O)O)c(=O)cc1-2`, the values for the IC50 with Hepatitis B virus [1] and in the data set on Hepatitis B virus [2] were greater than 1000 nM and 599 nM, respectively.
On to `COc1cc2c(cc1OCCCN1CCC3(C1)OCCO3)C[C@@H](C(C)C)n1cc(C(=O)O)c(=O)cc1-2`, for which the IC50 in the data set on Hepatitis B virus [1] was 195 nM; in the data set with Hepatitis B virus [2], 23 nM. Also, the viability at 30 µM in data set [4] is 74.9%. Also, the Activity entry with HT-22 [5] is on record as “Non-Toxic”.
As to `COc1cc2c(cc1N1CCC3(CCOC3)C1)CC(C(C)C)n1cc(C(=O)O)c(=O)cc1-2` (stereo not drawn), the concentration for half-maximal inhibition (IC50) turned out to be 62 nM with Hepatitis B virus [1], 5 nM in the data set on Hepatitis B virus [2] and 332 nM in the data set with Hepatitis B virus [3].
Consider `COc1cc2c(cc1N1CCC3(CCOCC3)C1)C[C@@H](C(C)C)n1cc(C(=O)O)c(=O)cc1-2`, for which the IC50 was found to be 71 nM with Hepatitis B virus [1] and 5 nM in the data set on Hepatitis B virus [2]. The Activity entry with HT-22 [5] and in the data set on HT-22 [6] was “Non-Toxic” each time.
As to `COc1cc2c(cc1N1CCOCC1)C[C@@H](C(C)C)n1cc(C(=O)O)c(=O)cc1-2`, the IC50 was 287 nM in the data set with Hepatitis B virus [1] and 23 nM in the data set on Hepatitis B virus [2]. Besides, the Activity entry (in data set [7]; in data set [9]; in data set [13]; in the data set on HT-22 [5]; in the data set with HT-22 [6]) was “Non-Toxic” throughout. Also, the AUC(0-inf) in data set [8] worked out at 23400 ng·h/mL. The same molecule returned an MRT inf in data set [10] of 2.69 h. Further, in data set [11], the half-life is 2.09 h. Also, the Tmax in [12] amounted to 0.58 h. In data set [14], this molecule returned a Cmax of 7620 ng/mL.
Take `COc1cc2c(cc1OCCCN1CCC3(C1)OCCO3)CC(C(C)C)n1cc(C(=O)O)c(=O)cc1-2` (stereo not drawn): the IC50 was 319 nM in the data set on Hepatitis B virus [1], 33 nM with Hepatitis B virus [2] and 47.3 nM in the data set with Hepatitis B virus [3].
As for `COc1cc2c(cc1N1CCC3(C1)OCCO3)CC(C(C)C)n1cc(C(=O)O)c(=O)cc1-2` (stereo not drawn), the figures for the IC50 in the data set on Hepatitis B virus [1], in the data set with Hepatitis B virus [2] and in the data set with Hepatitis B virus [3] were 38 nM, 1.8 nM and 7.6 nM, respectively.
The matching figures for `COc1cc2c(cc1N1CCC3(CCN(C(=O)OC(C)(C)C)CC3)C1)CC(C(C)C)n1cc(C(=O)O)c(=O)cc1-2` (stereo not drawn): 111 nM, 16 nM and 50 nM.
For the molecule `COc1cc2c(cc1N1CCC3(C1)OCCO3)C[C@@H](C(C)C)n1cc(C(=O)O)c(=O)cc1-2`, the IC50 in the data set on Hepatitis B virus [1] was found to be 84 nM; in the data set on Hepatitis B virus [2], 4 nM. Besides, the Activity result in the data set with HT-22 [5] and in the data set on HT-22 [6] was “Non-Toxic” each time.
Regarding `COCCCOc1cc2c(cc1OC)-c1cc(=O)c(C(=O)O)cn1[C@H](C(C)C)C2`, the results for the IC50 in the data set with Hepatitis B virus [1], in the data set on Hepatitis B virus [2] and in the data set with Hepatitis B virus [3] were 91 nM, 5 nM and 86 nM, respectively. In addition, the Activity entry in data set [15] is “Toxic”; in data set [16] it was “Toxic”; in data set [17], “Toxic”; in the data set on HT-22 [5], “Non-Toxic”; in the data set on HT-22 [6], “Non-Toxic”. This molecule came in with an AUC(0-inf) in [8] of 10800 ng·h/mL. This molecule also returned an MRT inf in data set [10] of 1.66 h. Further, the half-life in data set [11] was 2.39 h. The Tmax in data set [12] came to 0.42 h. This molecule also yielded a Cmax in [14] of 6630 ng/mL.
With `COc1cc2c(cc1N1CCC3(CC1)OCCO3)CC(C(C)C)n1cc(C(=O)O)c(=O)cc1-2` (stereo not drawn), the IC50 in the data set on Hepatitis B virus [1] was 87 nM; in the data set on Hepatitis B virus [2], 12 nM; in the data set with Hepatitis B virus [3], 0.5 nM.

The values are drawn from ChEMBL document CHEMBL5500329, “Identification of dihydroquinolizinone derivatives with nitrogen heterocycle moieties as new anti-HBV agents” (Eur J Med Chem, 2024).
